Experimental data taken from publication PMC9661718, “Identification of Inhibitors of the Schistosoma mansoni VKR2 Kinase Domain” (ACS Medicinal Chemistry Letters, 2022).
Entries after “also recorded” stand apart in the source; their conditions may differ.

Assays:
[1] = system: adult S. mansoni worms; test: Ex vivo adult S. mansoni phenotypic screen (descriptors and severity scores); design: species or system Schistosoma mansoni; key to Descriptors 2 h / Descriptors 5 h / Descriptors 24 h: degenerating (deg); uncoordinated (unc); slow (S); on sides, inability of worms to adhere to well floor with either the oral or ventral sucker; teg bleb, damage to the surface tegument; details: 10 μM compound; for Descriptors 2 h / Descriptors 5 h / Descriptors 24 h: ex vivo adult worms
Procedure: The 12 compounds identified from the SPR screen were tested against ex vivo adult S. mansoni worms to investigate whether they induce phenotypic alterations in the parasite. Compound effects at 10 μM were assessed at 2, 5, and 24 h, and activity was partially quantified using an observation-based severity scoring system that is designed to holistically assess the many different responses to chemical insult of which the schistosome is capable.[26],[27] For those compounds eliciting phenotypic changes, WormAssay was also employed as an additional readout to measure average worm motility per well.[28],[29] Four compounds, GW696155, GSK986310, GSK1520489, and SB-710363, produced a variety of effects in the worm (Figure 1; Table 2; Table S1). GW696155 generated the strongest responses. […] Although, SPR identified 12 compounds against the SmVKR2KD (Table 1), the absence of phenotypic activity for eight of these compounds (Table S2) could be due to their poor uptake by the parasite. It is also possible that the phenotypic changes noted for the four active compounds are only partially related or unrelated to engagement of the SmVKR2 target. […]
Preparation of S. mansoni
The acquisition, preparation and in vitro maintenance of S. mansoni have been described 11, 12.
We use a Naval Medical Research Institute (NMRI) isolate of S. mansoni that is cycled between Biomphalaria glabrata snails and male Golden Syrian hamsters (infected at 4-6 weeks of age) as intermediate and definitive hosts, respectively. Briefly, adult worms were harvested from hamsters 42 days post-infection in RPMI or DMEM, and washed five times prior to maintenance overnight at 37 °C and 5% CO2 in Basch medium 13 containing 4% heat-inactivated FBS, 100 μg/ml streptomycin and 100 U/ml penicillin. activity against adult Ex vivoS. mansoni
Ex vivo screens with adults employed 24-well flat-bottomed plates and approximately five males, two to three of which were paired to females. Screens incorporated a final compound concentration of 10 μM in DMSO (0.5% final concentration). The complex and often dynamic phenotypic responses that the schistosome parasite is capable of were observed using a Zeiss Axiovert A1 inverted microscope at 2, 5 and 24 h. Observations were classified using a constrained nomenclature that involves simple “descriptors” to convey changes in shape, motility and appearance, and the inability of the male worm to adhere to the bottom of the well, compared to DMSO controls 11, 14, 15. Each descriptor was given a value of 1 and these were added up to yield a “severity score” with a maximum of 4. Evidence of degeneracy or death was awarded a value of 4 as was damage to the tegument (surface), on the understanding this would compromise survival in vivo. Scores were averaged across 3-5 individual experiments.

[2] = system: adult S. mansoni; test: WormAssay average worm motility per well; design: species or system Schistosoma mansoni; details: 10 μM compound, 2, 5 and 24 h
Procedure: The 12 compounds identified from the SPR screen were tested against ex vivo adult S. mansoni worms to investigate whether they induce phenotypic alterations in the parasite. Compound effects at 10 μM were assessed at 2, 5, and 24 h, and activity was partially quantified using an observation-based severity scoring system that is designed to holistically assess the many different responses to chemical insult of which the schistosome is capable.[26],[27] For those compounds eliciting phenotypic changes, WormAssay was also employed as an additional readout to measure average worm motility per well.[28],[29] Four compounds, GW696155, GSK986310, GSK1520489, and SB-710363, produced a variety of effects in the worm (Figure 1; Table 2; Table S1). GW696155 generated the strongest responses. […] Although, SPR identified 12 compounds against the SmVKR2KD (Table 1), the absence of phenotypic activity for eight of these compounds (Table S2) could be due to their poor uptake by the parasite. It is also possible that the phenotypic changes noted for the four active compounds are only partially related or unrelated to engagement of the SmVKR2 target.
Figure 1 Changes in the average motility of adult S. mansoni as a function of time, as measured by WormAssay. Significance was determined by Student’s t-test (two-tailed): *P < 0.05, **p < 0.005, ***P < 0.0005. Data were derived from three to five biological assays with 10 μM compound. […]
The assay was performed according to the manufacturer’s recommendations without any modifications. The optimal concentration of the SmVKR2KD in the assay was established as µM. The autophosphorylation activity was measured at an ATP concentration of […] to aid the identification of competitive inhibitors as recommended by the ADP-Glo Kinase Assay (Promega) protocol. The autophosphorylation activity of the SmVKR2KD was measured in the presence and absence of inhibitors at various concentrations. […] The luminescence was measured using a CLARIOstar plate reader. […]

[3] = system: SmVKR1; design: method as in PMID 23696913; details: cited from earlier work
[4] = system: SmVKR2; design: method as in PMID 23696913; details: cited from earlier work
[5] = system: schistosomes; design: method as in PMID 23696913; details: cited from earlier work

Structure (SMILES) | Descriptors 2 h [1] | Severity scores 2 h ([1]; maximum score 4) | Descriptors 5 h [1] | Severity scores 5 h ([1]; maximum score 4) | Descriptors 24 h [1] | Severity scores 24 h ([1]; maximum score 4) | average worm motility (WormAssay) [2] | severity score ([1]; time not given, maximum score 4) | phenotypic activity assessed visually ([1]; time not stated) | inhibition of SmVKR1 [3] | inhibition of SmVKR2 [4] | apoptosis and egg production in schistosomes [5]
NCCNS(=O)(=O)c1ccc(-c2ccnc3[nH]ccc23)cc1 [GSK977617] | none | 0 | none | 0 | none | 0 | – | – | – | – | – | –
CN(C)CCNS(=O)(=O)c1ccc(-c2ccnc3[nH]ccc23)cc1 [GSK977620] | none | 0 | none | 0 | none | 0 | – | – | – | – | – | –
Cc1cccc(Nc2nc(N[C@H]3CCCC[C@H]3N)ncc2C(N)=O)c1 [GSK986310] | S | 1 | S | 1 | S | 1 | milder effect in decreasing worm movement | 1 | – | – | – | –
CS(=O)(=O)Nc1ccc(-c2ccnc3[nH]ccc23)cc1 [GSK993273] | none | 0 | none | 0 | none | 0 | – | – | – | – | – | –
Cc1cccc(Nc2nc(NCCN)ncc2C(N)=O)c1 [GSK1292139] | none | 0 | none | 0 | none | 0 | – | – | – | – | – | –
CNC(=O)c1ccccc1Nc1nc(Nc2cccc(CS(C)(=O)=O)c2)ncc1C [GSK1520489] | unc | 1 | unc | 1 | unc | 1 | without a long-term decrease in average motility | – | mild uncoordinated motility | – | – | –
Cc1n[nH]c2cc(Nc3ccnc(Nc4cccc(CN5CCOCC5)c4)n3)ccc12 [GW682569] | none | 0 | none | 0 | none | 0 | – | – | – | – | – | –
CC(C)Oc1ccc2c(-c3ccnc(Nc4ccc(N5CCN(C)CC5)cc4)n3)cnn2n1 [GW696155] | decreased motility and lost their ability to adhere to the floor of the well; also recorded: S, on sides | 2 | Dark, S, on sides | 3 | worm degeneration and damage to the surface tegument in the form of blebs or bubbles; also recorded: Deg, S, on sides, teg bleb | 4 | decrease in average worm motility over time | – | – | – | – | –
NC(=O)Nc1sc(-c2ccc(F)cc2)cc1C(N)=O [GW789449] | none | 0 | none | 0 | none | 0 | – | – | – | – | – | –
Nc1n[nH]c2cnc(-c3ccccc3)cc12 [SB-642124] | none | 0 | none | 0 | none | 0 | – | – | – | – | – | –
Nc1nc(N)c2[nH]c(-c3ccccc3)nc2n1 [SKF-12778] | none | 0 | none | 0 | none | 0 | – | – | – | – | – | –
CC(C)(C)c1cc(C=C(C#N)C#N)cc(Br)c1O [tyrphostin AG1024] | – | – | – | – | – | – | – | – | – | inhibited | inhibited | concentration-dependent apoptosis and cessation of egg production
